Reference: patent US12661410B2, “Compounds for targeted degradation of RET” (C4 Therapeutics, Inc., priority 2020, dated 2026)
Substitutions are numbered along the chain they refer to. Where two headings read alike, the source gives them in different places. Values belong to the molecule of their own block, whether it stands above or below them.

Experiments:
[1] = molecular target: T1, RET(KD: 658-1114 G810R) (Homo sapiens, UniProt P07949, G810R); assay: HiBiT-Degradation, RET G810R degradation assay (Nano-Glo HiBiT Lytic), 293T.165 cells; assay type: cell-based; conditions: for Emax / DC50: 6.0 hours
T1 construct: 658-1114; expressed in transfected cells; host or cells: 293T.165 (293T cells, generated in-house)
T1 sequence (P07949 658-1114 G810R): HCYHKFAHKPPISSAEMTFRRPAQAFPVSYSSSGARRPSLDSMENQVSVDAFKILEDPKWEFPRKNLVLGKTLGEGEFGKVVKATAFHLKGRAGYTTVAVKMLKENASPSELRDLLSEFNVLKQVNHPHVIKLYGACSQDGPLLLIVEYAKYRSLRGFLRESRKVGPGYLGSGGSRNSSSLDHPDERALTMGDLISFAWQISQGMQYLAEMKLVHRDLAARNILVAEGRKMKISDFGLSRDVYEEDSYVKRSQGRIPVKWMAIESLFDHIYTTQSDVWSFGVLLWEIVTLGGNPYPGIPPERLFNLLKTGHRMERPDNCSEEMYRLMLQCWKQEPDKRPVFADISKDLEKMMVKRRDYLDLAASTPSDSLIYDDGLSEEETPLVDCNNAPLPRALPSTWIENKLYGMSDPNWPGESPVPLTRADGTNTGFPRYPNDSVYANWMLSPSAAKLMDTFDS
Summary of the method: (§1)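 HEK293T lines expressing HiBiT-tagged RET kinase domain, wild-type (293T.144) or G810R (293T.165), treated 6 h in duplicate, 11-point half-log series from 10 μM top. Lytic HiBiT luminescence read; DC50 and Emax (% protein remaining) from dose-response curves.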

[2] = molecular target: T2, RET (658-1114) (Homo sapiens, UniProt P07949); assay: HiBiT-Degradation, RET wild-type degradation assay (Nano-Glo HiBiT Lytic), 293T.144 cells; assay type: cell-based; conditions: for DC50 / Emax: 6.0 hours
T2 construct: 658-1114; expressed in transfected cells; host or cells: 293T.144 (293T cells, generated in-house)
T2 sequence (P07949 658-1114): T1 sequence (P07949 658-1114 G810R) with R153G
Summary of the method: as §1

[3] = % remaining protein, read-out: 293T.165 RET(KD: 658-1114 G810R) 6.0 hours (Emax)
[4] = half-maximal degradation concentration, read-out: 293T.165 RET(KD: 658-1114 G810R) 6.0 hours (DC50)
[5] = RET G810R, read-out: HiBiT-Degradation 293T.165 RET(KD: 658-1114 G810R) 6.0 hours (DC50)
[6] = RET G810R, read-out: HiBiT-Degradation 293T.165 RET(KD: 658-1114 G810R) 6.0 hours (Emax)
[7] = RET wild-type, read-out: HiBiT-Degradation 293T.144 RET (658-1114) 6.0 hours (DC50)
[8] = RET wild-type, read-out: HiBiT-Degradation 293T.144 RET (658-1114) 6.0 hours (Emax)
[9] = % remaining protein, read-out: 293T.144 RET (658-1114) 6.0 hours (Emax)
[10] = half-maximal degradation concentration, read-out: 293T.144 RET (658-1114) 6.0 hours (DC50)

SMILES: N#Cc1cnn2cc(-c3cnn(C4CCN(C(=O)NC5CCN(c6ccc(NC7CCC(=O)NC7=O)cc6F)CC5)CC4)c3)cc(-c3ccc(N4CCN(Cc5ccccn5)CC4)nc3)c12 (stereo not shown) [Compound 77, 4-[4-[3-cyano-4-[6-[4-(2-pyridylmethyl)piperazin-1-yl]-3-pyridyl]pyrazolo[1,5-a]pyridin-6-yl]pyrazol-1-yl]-N-[1-[4-[(2,6-dioxo-3-piperidyl)amino]-2-fluoro-phenyl]-4-piperidyl]piperidine-1-carboxamide]
- Emax [1, 3]: < 50%
- DC50 [1, 4]: < 0.1 µM
- HiBiT-Degradation 293T.165 RET(KD: 658-1114 G810R) 6.0 hours (IP) [nM] ([1]; RET G810R): ++++ (< 50 nM = ++++)
- DC50 [1, 5]: < 0.1 µM
- Emax [1, 6]: < 50%
- HiBiT-Degradation 293T.144 RET (658-1114) 6.0 hours (IP) [nM] ([2]; RET wild-type): ++++ (< 50 nM = ++++)
- DC50 [2, 7]: < 0.05 µM
- Emax [2, 8]: < 30%

SMILES: N#Cc1cnn2cc(-c3cnn([C@H]4CC[C@@H](N5CCN(c6ccc(NC7CCC(=O)NC7=O)cc6F)CC5)CC4)c3)nc(-c3ccc(N4C[C@H]5COC[C@@H](C4)N5Cc4ccc(F)cn4)nc3)c12 (single isomer, unassigned) [Compound 151]
- 293T.165 RET(KD: 658-1114 G810R) 6.0 hours (IP) [nM] [1]: ++++ (<50 nM = ++++)
- Emax [1, 3]: < 30%
- DC50 [1, 4]: < 0.05 µM
- 293T.144 RET (658-1114) 6.0 hours (IP) [nM] [2]: ++++ (<50 nM = ++++)
- Emax [2, 9]: < 30%
- DC50 [2, 10]: < 0.05 µM

SMILES: N#Cc1cnn2cc(-c3cnn(C4CCN(C(=O)CC5(O)CCN(c6ccc(NC7CCC(=O)NC7=O)cc6F)CC5)CC4)c3)cc(-c3ccc(N4CCC(c5ccc(O)cc5)CC4)nc3)c12 (stereo not shown) [Compound 197, 6-[1-[1-[2-[1-[4-[(2,6-dioxo-3-piperidyl)amino]-2-fluoro-phenyl]-4-hydroxy-4-piperidyl]acetyl]-4-piperidyl]pyrazol-4-yl]-4-[6-[4-(4-hydroxyphenyl)-1-piperidyl]-3-pyridyl]pyrazolo[1,5-a]pyridine-3-carbonitrile]
- 293T.165 RET(KD: 658-1114 G810R) 6.0 hours (IP) [nM] [1]: ++++ (<50 nM = ++++)
- Emax [1, 3]: < 30%
- DC50 [1, 4]: < 0.05 µM
- 293T.144 RET (658-1114) 6.0 hours (IP) [nM] [2]: ++++ (<50 nM = ++++)
- Emax [2, 9]: < 30%
- DC50 [2, 10]: < 0.05 µM

The next lines start with the values.

- 293T.165 RET(KD: 658-1114 G810R) 6.0 hours (IP) [nM] [1]: ++++ (<50 nM = ++++)
- Emax [1, 3]: < 50%
- DC50 [1, 4]: < 0.1 µM
- 293T.144 RET (658-1114) 6.0 hours (IP) [nM] [2]: ++++ (<50 nM = ++++)
- Emax [2, 9]: < 30%
- DC50 [2, 10]: < 0.05 µM
SMILES: CCC1(c2ncccn2)CCN(c2ccc(-c3nc(-c4cnn([C@H]5CC[C@H](N6CCC(c7ccc(N[C@@H]8CCC(=O)NC8=O)cc7F)CC6)CC5)c4)cn4ncc(C#N)c34)cn2)CC1 (single isomer, unassigned) [Compound 140]

- 293T.165 RET(KD: 658-1114 G810R) 6.0 hours (IP) [nM] [1]: ++++ (<50 nM = ++++)
- Emax [1, 3]: < 30%
- DC50 [1, 4]: < 0.05 µM
- 293T.144 RET (658-1114) 6.0 hours (IP) [nM] [2]: ++++ (<50 nM = ++++)
- Emax [2, 9]: < 30%
- DC50 [2, 10]: < 0.05 µM
SMILES: N#Cc1cnn2cc(-c3cnn([C@H]4CC[C@H](N5CCC(c6ccc(NC7CCC(=O)NC7=O)cc6F)CC5)CC4)c3)nc(-c3ccc(N4CCC5(CC4)OCc4cccnc45)nc3)c12 (single isomer, unassigned) [Compound 148, 4-(6-(5H-Spiro[furo[3,4-b]pyridine-7,4′-piperidin]-1′-yl)pyridin-3-yl)-6-(1-((1r, 4r)-4-(4-(4-((2,6-dioxopiperidin-3-yl)amino)-2-fluorophenyl)piperidin-1-yl)cyclohexyl)-1H-pyrazol-4-yl)pyrazolo[1,5-a]pyrazine-3-carbonitrile]

- Emax [1, 3]: < 50%
- DC50 [1, 4]: < 0.1 µM
- HiBiT-Degradation 293T.165 RET(KD: 658-1114 G810R) 6.0 hours (IP) [nM] ([1]; RET G810R): ++++ (< 50 nM = ++++)
- DC50 [1, 5]: < 0.1 µM
- Emax [1, 6]: < 50%
- HiBiT-Degradation 293T.144 RET (658-1114) 6.0 hours (IP) [nM] ([2]; RET wild-type): ++++ (< 50 nM = ++++)
- DC50 [2, 7]: < 0.05 µM
- Emax [2, 8]: < 30%
SMILES: CCC1(C(=O)NC(C)C)CCN(c2ccc(-c3nc(-c4cnn(C5CCN(C(=O)CC6(O)CCN(c7ccc(NC8CCC(=O)NC8=O)cc7)CC6)CC5)c4)cn4ncc(C#N)c34)cn2)CC1 (stereo not shown) [Compound 85, 1-[5-[3-cyano-6-[1-[1-[2-[1-[4-[(2,6-dioxo-3-piperidyl)amino]phenyl]-4-hydroxy-4-piperidyl]acetyl]-4-piperidyl]pyrazol-4-yl]pyrazolo[1,5-a]pyrazin-4-yl]-2-pyridyl]-4-ethyl-N-isopropyl-piperidine-4-carboxamide]
